Measurements published in PMC11858516, “Promiscuity in Polyphenol–Protein Interactions—Monitoring Protein Conformational Change upon Polyphenol–Protein Binding by Nano-Differential Fluorimetry (Nano-DSF)” (Molecules, 2025).

Columns and labels:
Type in all cases: binding
[1] = target: T1, Casein; assay: nano-DSF F350/F330 titration, […] fit; settings: 37 °C, phosphate buffer pH 6.8, 1:1 stoichiometry assumed
T1 construct: gene CSN1S1

[2] = target: T2, bovine serum albumin (BSA) (Bos taurus, UniProt P02769); assay: nano-DSF F350/F330 titration, […] fit; settings: read-out: Ka [M^-1] (converted)
T2 construct: gene ALB

[3] = target: T3, Ovalbumin (OVA) (Gallus gallus, UniProt P01012); assay: nano-DSF F350/F330 ratio; settings: 1000 µM; phosphate buffer pH 6.8; 5 µM protein
T3 construct: gene SERPINB14
T3 sequence (P01012 2-386): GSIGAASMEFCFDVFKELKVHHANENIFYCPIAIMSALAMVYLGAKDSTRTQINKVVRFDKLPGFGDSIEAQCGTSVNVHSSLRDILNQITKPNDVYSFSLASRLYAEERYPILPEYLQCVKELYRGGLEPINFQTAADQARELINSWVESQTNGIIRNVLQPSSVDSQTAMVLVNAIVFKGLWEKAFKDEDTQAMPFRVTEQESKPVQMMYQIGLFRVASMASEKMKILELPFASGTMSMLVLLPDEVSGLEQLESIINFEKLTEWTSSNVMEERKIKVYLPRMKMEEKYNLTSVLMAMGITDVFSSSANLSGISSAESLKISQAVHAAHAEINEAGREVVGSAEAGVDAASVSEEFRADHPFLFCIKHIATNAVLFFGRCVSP
Source text: nano-DSF F350/F330 ratio on Ovalbumin (OVA)

[4] = target: T2, bovine serum albumin (BSA); assay: nano-DSF F350/F330 ratio; settings: 1000 µM; phosphate buffer pH 6.8; 5 µM protein
Source text: nano-DSF F350/F330 ratio on bovine serum albumin (BSA)

T2 sequence (P02769 25-607): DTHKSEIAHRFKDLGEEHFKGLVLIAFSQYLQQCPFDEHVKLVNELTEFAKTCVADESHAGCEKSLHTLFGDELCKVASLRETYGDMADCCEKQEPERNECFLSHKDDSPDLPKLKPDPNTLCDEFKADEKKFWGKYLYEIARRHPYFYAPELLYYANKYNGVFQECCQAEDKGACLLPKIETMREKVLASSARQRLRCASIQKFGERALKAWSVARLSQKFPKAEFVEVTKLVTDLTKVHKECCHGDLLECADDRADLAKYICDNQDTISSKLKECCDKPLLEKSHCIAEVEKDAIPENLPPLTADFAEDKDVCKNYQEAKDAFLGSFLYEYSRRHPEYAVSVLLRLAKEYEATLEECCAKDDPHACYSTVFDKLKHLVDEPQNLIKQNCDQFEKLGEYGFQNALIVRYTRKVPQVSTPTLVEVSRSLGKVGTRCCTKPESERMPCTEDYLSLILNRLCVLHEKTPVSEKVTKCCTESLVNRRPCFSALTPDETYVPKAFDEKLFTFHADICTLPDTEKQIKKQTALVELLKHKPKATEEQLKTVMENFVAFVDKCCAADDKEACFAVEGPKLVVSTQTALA

O=C(/C=C/c1ccc(O)c(O)c1)O[C@H]1[C@H](O)C[C@](O)(C(=O)O)C[C@H]1OC(=O)/C=C/c1ccc(O)c(O)c1 [3,4-diCQA]
Ka [M^-1] [1]: 41 271
Kd [2]: 18 µM

O=C(/C=C/c1ccc(O)c(O)c1)O[C@@H]1C[C@](O)(C(=O)O)C[C@@H](O)[C@H]1O [5-CQA]
Ka [M^-1] [1]: 21 450
F350/F330 fluorescence ratio [3]: 1.02

O=C(O[C@@H]1Cc2c(O)cc(O)cc2O[C@@H]1c1cc(O)c(O)c(O)c1)c1cc(O)c(O)c(O)c1 [EGCG]
F350/F330 fluorescence ratio [3]: 1.25
F350/F330 fluorescence ratio [4]: 1.57

Oc1cc(O)c2c(c1)O[C@H](c1ccc(O)c(O)c1)[C@H](O)C2 [Epicatechin]
Ka ([1]; µM column is the reciprocal of Ka, the M^-1 cell is misprinted (7 1616)): 139.6 µM

O=C(OC[C@H]1O[C@H](OC(=O)c2cc(O)c(O)c(O)c2)[C@H](OC(=O)c2cc(O)c(O)c(O)c2)[C@@H](OC(=O)c2cc(O)c(O)c(O)c2)[C@@H]1OC(=O)c1cc(O)c(O)c(O)c1)c1cc(O)c(O)c(O)c1 [α-PGG]
Kd [2]: 89.3 µM

O=C(OC[C@H]1O[C@@H](OC(=O)c2cc(O)c(O)c(O)c2)[C@H](OC(=O)c2cc(O)c(O)c(O)c2)[C@@H](OC(=O)c2cc(O)c(O)c(O)c2)[C@@H]1OC(=O)c1cc(O)c(O)c(O)c1)c1cc(O)c(O)c(O)c1 [β-PGG]
Kd [2]: 118 µM
